Test results published in patent publication US6716879B2, “Methods for anti-tumor therapy” (Compass Pharmaceuticals, LLC, priority 2000, dated 2004).
Read-outs that look alike come from different tables or passages of the source. One block for each compound: values may come before it.

Legend:
[1] = test system: Leiomyosarcoma/abdominal patient tumor cells; test: Alamar Blue anti-tumor screen, IC50 on patient tumor cells, tumor #1; type: cell-based, human; settings: triplicate
Description: (§1) Excess tissue specimens obtained from patients undergoing therapeutic surgical resections were freshly obtained at the time of surgery and a small portion of the specimen was sent for pathological testing. For diagnosis and grading of tissue samples (ie: prior to processing), hematoxylin and eosin stained tissue sections were examined by a pathologist. If the diagnosis and grading of the tissue concurred with the determination made by the surgical pathologist that provided the tissue, then the tissue was used in the screen. If there was no agreement, then two additional pathologists served as referees. If no consensus was reached, then the tissue was not used. […]
(§2) After tissue processing, the relative purity of the resulting cell suspension was determined by cytological examination after fixation and Papanicolaou staining. […]
(§3) Cell preparations that passed histological and cytological examination for diagnosis, grading, and cell purity were thawed at 37° C. and resuspended in tissue culture medium designed to maintain the cells during the incubation period. The live and dead cells were counted and the cells were diluted in culture medium to 1.0×10^3 live cells/test well for tumor cells and 3.3×10^3 live cells/test well for normal cells. […]
(§4) The kinetics of cellular re-dox reactions were subsequently measured at various times, for example at 3 hours, 3 days, and 5 days post-dye addition. […]

[2] = test system: Fibrohistiocytic Sarcoma/lung patient tumor cells; test: Alamar Blue anti-tumor screen, IC50 on patient tumor cells, tumor #2; type: cell-based; settings: Homo sapiens, triplicate
Description: as §1, §2, §3, §4

[3] = test system: Myxofibrosarcoma/thigh patient tumor cells; test: Alamar Blue anti-tumor screen, IC50 on patient tumor cells, tumor #3; type: cell-based; settings: Homo sapiens, triplicate
Description: as §1, §2, §3, §4

[4] = test system: Leiomyosarcoma/pelvic patient tumor cells; test: Alamar Blue anti-tumor screen, IC50 on patient tumor cells, tumor #4; type: cell-based, human
Description: (§5) Excess tissue specimens obtained from patients undergoing therapeutic surgical resections were freshly obtained at the time of surgery and a small portion of the specimen was sent for pathological testing. For diagnosis and grading of tissue samples (ie: prior to processing), hematoxylin and eosin stained tissue sections were examined by a pathologist. If the diagnosis and grading of the tissue concurred with the determination made by the surgical pathologist that provided the tissue, then the tissue was used in the screen. If there was no agreement, then two additional pathologists served as referees. If no consensus was reached, then the tissue was not used.
(§6) The remaining tissue was used to prepare cell suspensions. The tissue was initially treated enzymatically via standard methods until only undigested material remained. The digested cell suspension was filtered through one or more screens of between 40 micron and 100 micron porosity. The resulting cell suspension was further purified via isokinetic density centrifugation.
(§7) Additional normal cells were removed from the cell suspension by negative immunoselection with a combination of monoclonal antibodies linked to magnetic beads (Dynal) that were used according to the manufacturers' instructions. The remaining cells were placed into appropriate medium, frozen down in 1.0 mL aliquots, and stored until use.
After tissue processing, the relative purity of the resulting cell suspension was determined by cytological examination after fixation and Papanicolaou staining. Only those cell preparations greater than 80% tumor cells were used for testing of candidate compounds. If there was any doubt about the percentage of tumor cells in the cell preparation, additional pathologists served as referees to make a determination.
Cell preparations that passed histological and cytological examination for diagnosis, grading, and cell purity were thawed at 37° C. and resuspended in tissue culture medium designed to maintain the cells during the incubation period. The live and dead cells were counted and the cells were diluted in culture medium to 1.0×10^3 live cells/test well for tumor cells and 3.3×10^3 live cells/test well for normal cells.
The cells were added to microtiter plates and incubated at 37° C. overnight with 10 μM of the candidate compounds that were added at 1/10th the volume of the cell suspension. Alamar Blue (Accumed International, Westlake Ohio) was then added to the cells at 1/10 the volume of the well, and the cells were further incubated at 37° C. for various times. Alamar Blue dye measures cellular re-dox reactions (ie: cellular respiration) whereby a spectral shift occurs upon reduction of the dye. (Excitation 530 nm; emission 590 nm).
The kinetics of cellular re-dox reactions were subsequently measured at various times, for example at 3 hours, 3 days, and 5 days post-dye addition. These measurements, in comparison with control cells (untreated with compound) and media controls (test wells without cells) provide the percent inhibition of cellular mitochondrial respiration as a result of candidate compound treatment, as well as IC50 determinations.
In a blinded fashion, approximately 10,000 compounds were tested at a rate of 1,000-4,000 compounds per run set against various tumor types. The anti-tumor screen utilized was composed of three tiers as follows. In screen 1, patient tumor cells were tested in singles, with candidate compounds at a concentration of 10 μM. […]

[5] = test system: Gastrointestinal stromal tumor (sarcoma) patient tumor cells; test: Alamar Blue anti-tumor screen, IC50 on patient tumor cells, tumor #5; type: cell-based; settings: Homo sapiens, triplicate
Description: as §1, §2, §3, §4

[6] = test system: Gastrointestinal stromal tumor (sarcoma) patient tumor cells; test: Alamar Blue anti-tumor screen, IC50 on patient tumor cells, tumor #6; type: cell-based; settings: Homo sapiens, triplicate
Description: as §1, §2, §3, §4

[7] = test system: Ovarian patient tumor cells; test: Alamar Blue anti-tumor screen, IC50 on patient tumor cells, tumor #7; type: cell-based; settings: Homo sapiens, triplicate
Description: as §1, §2, §3, §4

patient tumor cells = test: Anti-tumor screen 1 and 2 at 10 μM on patient tumor cells; type: cell-based, human; settings: for inhibition at 10 µM: Homo sapiens
Description: as §5, §6, §7, §2, §3, §4

patient normal cells = test: Anti-tumor screen 2 at 10 μM on patient normal cells; type: cell-based; settings: Homo sapiens, screen 2, 10 μM, in duplicate
Description: as §1, §2, §3, §4

- IC50 ([1]; Homo sapiens): 170 nM
- IC50 [1]: 150 nM
- IC50 [2]: 30 nM
- IC50 [3]: 49 nM
- IC50 ([4]; Homo sapiens, Tumor #4, Leiomyosarcoma/pelvic, patient tumor cells, triplicate (Table 2), read-out: IC50): 339 nM
- IC50 ([4]; Tumor #4, Leiomyosarcoma/pelvic, patient tumor cells, triplicate (Table 2), read-out: IC50): 410 nM
- IC50 [5]: 2400 nM
- IC50 [6]: 531 nM
- IC50 [7]: 35 nM
Structure (SMILES): O=C(Nc1ccc(Cl)cc1)c1cc(Cl)ccc1NS(=O)(=O)c1ccc(Cl)cc1 [Compound 1, 5-chloro-2-{[(4-chlorophenyl)sulfonyl]amino}-N-(4-chlorophenyl)benzamide]
- inhibition at 10 µM (patient tumor cells; screen 1, 10 μM, patient tumor cells, criterion: at least 80% inhibition and/or two standard deviations from the mean of the plate samples, read-out: inhibition (compared to cell and media controls)): ≥ 80%
- inhibition at 10 µM (patient tumor cells; screen 2, 10 μM, in duplicate, patient tumors, read-out: inhibition on tumor cells): ≥ 80%
- selectivity against tumor cells (patient tumor cells; three-tier anti-tumor screen, tumor versus normal patient cells, 10 μM): selectivity against tumor cells
- inhibition at 10 µM (patient normal cells): ≤ 20%

- IC50 ([4]; Homo sapiens): 44.7 nM
Structure (SMILES): O=C(Nc1ccc(Cl)cc1)c1cc(Br)ccc1NS(=O)(=O)c1ccc(Cl)cc1 [Compound 2, 5-bromo-2-{[(4-chlorophenyl)sulfonyl]amino}-N-(4-chlorophenyl)-benzamide]

- IC50 ([4]; Homo sapiens): 118 nM
Structure (SMILES): O=C(Nc1ccc(Cl)cc1)c1cc(Br)ccc1NS(=O)(=O)c1ccc(Cl)c([N+](=O)[O-])c1 [Compound 3, (5-bromo-2-{[(4-chloro-3-nitrophenyl)sulfonyl]amino}phenyl)-N-(4-chlorophenyl)carboxamide]

- IC50 ([4]; Homo sapiens, Tumor #4 of Table 2, Leiomyosarcoma/pelvic, tested as in Example 3 (Table 3), read-out: IC50): 209 nM
Structure (SMILES): O=C(Nc1ccc(Cl)cc1)c1cc2ccccc2cc1NS(=O)(=O)c1ccc(Cl)cc1 [Compound 5, N-(4-chlorophenyl)(3-{[(4-chlorophenyl)sulfonyl]amino}(2-naphthyl))-carboxamide]
